Test results taken from PMC13021670, “Novel small molecule targeting PgQC reduces Porphyromonas gingivalis virulence” (Frontiers in Oral Health, 2026).

Molecular target: T1, P. gingivalis glutaminyl cyclase (PgQC) (Porphyromonas gingivalis, UniProt Q7MT37)
T1 construct: gene PG_2157; Recombinant P. gingivalis glutaminyl cyclase
Assay: fluorogenic enzyme assay with H-Gln-AMC, recombinant purified PgQC ([…]), fit to competitive inhibition
Format: biochemical

T1 sequence (Q7MT37 entry or part of it): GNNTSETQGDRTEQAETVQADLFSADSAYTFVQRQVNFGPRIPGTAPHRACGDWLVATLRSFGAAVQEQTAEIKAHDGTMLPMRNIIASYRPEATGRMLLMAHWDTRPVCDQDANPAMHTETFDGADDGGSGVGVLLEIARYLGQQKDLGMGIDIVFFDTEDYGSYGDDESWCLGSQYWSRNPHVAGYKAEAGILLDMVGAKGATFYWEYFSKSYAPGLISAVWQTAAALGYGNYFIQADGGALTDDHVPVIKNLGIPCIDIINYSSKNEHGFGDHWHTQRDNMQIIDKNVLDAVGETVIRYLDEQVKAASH

`N=C(N)NCCOc1ccc(CNc2cnc3nc[nH]c3c2)cc1` [S-0636, 1-(2-(4-((lmidazo[4,5-b]pyridin-6-ylamino)methyl)-phenoxy)ethyl)guanidine] was tested, and the Ki was 0.014 µM.
